Laboratory results: patent US5576296A, “Galanin antagonist” (priority 1991, dated 1996)
Ends that are not written are not given here.

How the values were obtained:
galanin receptor [1] = assay: Displacement of 125I-galanin from membranes of Rin m 5F cells; type: binding, rat; settings: Rin m 5F membranes
Experimental: 4) Ligand binding studies were conducted. Displacement of ^125 I-galanin by galanin, galanin fragment (1-13), Substance P fragment (4-11), galanin fragment (1-13) + Substance P fragment (4-11) in equimolar concentrations and the peptides of the invention M15, M35 and M34, A was studied.
Synthetic porcine galanin(1-29) was iodinated by chloramine-T-method to yield ^125 I-monoiodo-Tyr^26 -porcine galanin (specific activity 1800-2000 Ci/mmol), (as described by Land T., et al in: Methods in Neurosciences, Ed. M. Conn, 5, 1991, 225-234), and employed in ligand binding studies carried out at equilibrium.
The establishment and cell culture of Rin m 5F (a rat pancreatic β-tumor cell-line) cells have been described earlier (Gazdav A. F., et. al. Proc. Natl. Acad. Sci. USA, 77 (1980) 3519-3523). Briefly, the cells were grown in RPMI-1640 (Gibco) medium containing 10% (v/v) fetal calf serum, 2.06 mM L-gluthamine, 100 IU/ml penicillin and 100 μg/ml streptomycin in 10% CO2 -90% air 37° C. They were passaged every 5 days. The cells were detached from the surface of the bottles using 0.25% trypsin containing 1 mM EDTA and centrifuged at 2000 × g for 5 min at 4° C. The pellet was exposed for 15 min to hypoosmotic 5 mM HEPES buffer (pH 7.4). The suspension was centrifuged at 20000 × g for 15 min, the resulting pellet was resuspended in bacitracin-containing ([…]) 5 mM HEPES-buffered Krebs-Ringer solution (137 mM NaCl, […], 1.8 mM CaCl2, 1 g/1 glucose), pH 7.4, and used immediately in equilibrium binding experiments.
Displacement experiments were carried out in a final volume of 400 μl of bacitracin-containing (1 mg/ml) HEPES-buffered (5 mM) Krebs-Ringer solution, 0.05% (w/v) of BSA (pH 7.4) in the presence of 0.1-0.2 nM ^125 I-galanin, the membrane preparation and the increasing concentrations (10^-12 -10^-6 M) of unlabeled porcine galanin or of other galanin receptor ligands. Samples were incubated for 30 min at 37° C. Incubation was terminated by the addition of 10 ml of ice-cold HEPES-buffered Krebs-Ringer solution, followed by rapid filtration over Whatman GF/C filters, precoated for 5-6 hours in 0.3% (v/v) of polyethyleneimine solution. Filters were washed with 10 ml of assay solution. Radioactivity retained on the filters was determined in a Packard gamma counter. Specific binding was defined as that displaceable by 1 μM galanin (or appropriate concentration of a displacer).
The IC50 values of the displacing ligands were calculated from the computer-generated IC50 values as described by Land, T., et. al. (ibid).
Fitting of the experimental data was carried out on a Macintosh SE by means of a nonlinear least squares method using the Macintosh program "KaleidGraph".

galanin receptor [2] = assay: Displacement of 125I-galanin, membranes from rat hypothalamus; type: binding; settings: displacement experiments in rat hypothalamus, 125I-galanin
Experimental: Adult male rats (Sprague-Dawley, 180-200 g) were decapitated, the hypothalami quickly dissected and homogenized (10% mass/vol.) in 0.05M TRIS-Cl buffer, pH 7.4. The homogenate was diluted tenfold and centrifuged at 1000 × g for 10 min. The supernatant was centrifuged at 10,000 × g for 45 min and the pellet resuspended in 5 mM Hepes buffered Krebs-Ringer solution (137 mM NaCl, 2.68 mM KCl, 1.8 mM CaCl2 1 g/1 glucose), pH 7.4 to yield a final protein concentration of 1.0-1.5 mg/ml.
Displacement experiments were carried out in a final volume of 400 μl of Hepes-buffered (5 mM) Krebs-Ringer solution, 0.05% (w/v) of BSA (pH 7.4 ) supplemented with bacitracin (1 mg/ml ) in the presence of 0.1-0.2 nM 1251-galanin, the membrane preparation from rat hypothalami and increasing concentrations (10-12, 10^-6M) of unlabeled galanin or of other galanin recepto-ligands. Samples were incubated for 30 min at 37° C. Incubation was terminated by the addition of 10 ml of ice-cold Hepes-buffered Krebs-Ringer solution, followed by rapid filtration over Whatman GF/C filters, precoated for 5-6 hours in 0.3% (v/v) of polyethylencimine solution. The filters were washed with 10 ml of assay solution. Radioactivity retained on the filters was determined in a Packard gamma counter. Specific binding was defined as that displaceable by 1 μM galanin.
The 1C50 values of the displacing ligands were calculated by fitting of the experimental data on a Macintosh SE by means of a nonlincar least squares method using the program "KaleidaGraph".

[3] = test system: scopolamine-induced release of ACh; assay: Microdialysis: scopolamine-induced release of ACh in vivo from rat ventral hippocampus; settings: scopolamine 0.3 mg/kg s.c. alone; peak (second) 20 min fraction; n=2
Experimental: 2) Galanin inhibits acetylcholine release, measured according to Fisone G., et al (Proc. Natl. Acad. Sci. vol 84, 1987, 7339-7343). By using substantially the same procedure as the cited Fisone G., et al, a peptide according to the invention, M15, is now shown to counteract the inhibitory effects of galanin on the scopolamine-induced release of acetylcholine in vivo.
Surgery and basic methodology. Experiments were carried out with female CD-COBS (Charles River, Como, Italy) rats, weighing 200-260 g. Animals were anesthetized with equitensin (1% pentobarbital, 4% chloral hydrate). […] The microdialysis probe extended 3 mm beyond the end of the guide cannula; it was perfused at a constant rate of 2 μl (min with Ringer's solution (NaCl, 147 mM; CaCl2, 2.2 mM and KCl, 4.0 mM), containing 10 μM physostigmine sulfate and adjusted to pH 7.0 with NaOH. The initial 40 min perfusate was discarded. Thereafter, perfusates were collected every 20 min during a total perfusion period of 260 min. At the end of the collection period, the samples were immediately frozen on solid CO2 and lyophilized. Acetylcholine (Ach) content was quantified by a specific radioenzymatic method described in detail by Consolo S., et al. (J. Neurochem. […]

| Compound | IC50 (galanin receptor [1]; read-out: IC50) [nM] | IC50 (galanin receptor [2]) [nM] | ACh release [3] [pmol] | IC50 (galanin receptor [1]; read-out: IC50 (no displacement)) [nM] |
| --- | --- | --- | --- | --- |
| CC(C)C[C@H](NC(=O)[C@H](CC(C)C)NC(=O)[C@H](Cc1ccc(O)cc1)NC(=O)CNC(=O)[C@H](C)NC(=O)[C@H](CO)NC(=O)[C@H](CC(N)=O)NC(=O)[C@H](CC(C)C)NC(=O)[C@@H](NC(=O)[C@H](Cc1c[nH]c2ccccc12)NC(=O)CN)[C@@H](C)O)C(=O)NCC(=O)N1CCC[C@H]1C(=O)O [Galanin fragment (1-13), reference compound] | 100 |  |  |  |
| CC(C)C[C@H](NC(=O)[C@H](CC(C)C)NC(=O)[C@H](Cc1ccc(O)cc1)NC(=O)CNC(=O)[C@H](C)NC(=O)[C@H](CO)NC(=O)[C@H](CC(N)=O)NC(=O)[C@H](CC(C)C)NC(=O)[C@@H](NC(=O)[C@H](Cc1c[nH]c2ccccc12)NC(=O)CN)[C@@H](C)O)C(=O)NCC(=O)N1CCC[C@H]1C(=O)N[C@@H](CCCCNC(=O)[C@@H]1CCCN1C(=O)[C@H](CC(C)C)NC(=O)[C@H](Cc1ccccc1)NC(=O)CNC(=O)CNC(=O)[C@@H](N)Cc1ccc(O)cc1)C(N)=O [M34,A, Galanin(1-13)-Lys amide (Pro-Leuenkephalin(5-1))] | 10 | 10 |  |  |
| CC(C)C[C@H](NC(=O)[C@H](CC(C)C)NC(=O)[C@H](Cc1ccc(O)cc1)NC(=O)CNC(=O)[C@H](C)NC(=O)[C@H](CO)NC(=O)[C@H](CC(N)=O)NC(=O)[C@H](CC(C)C)NC(=O)[C@@H](NC(=O)[C@H](Cc1c[nH]c2ccccc12)NC(=O)CN)[C@@H](C)O)C(=O)NCC(=O)N1CCC[C@H]1C(=O)N1CCC[C@H]1C(=O)N1CCC[C@H]1C(=O)NCC(=O)N[C@@H](Cc1ccccc1)C(=O)N[C@@H](CO)C(=O)N1CCC[C@H]1C(=O)N[C@@H](Cc1ccccc1)C(=O)N[C@@H](CCCNC(=N)N)C(N)=O [M 35, Galanin(1-13)-Bradykinin(2-9) amide] | 0.1 | 0.2 |  |  |
| CN1[C@@H]2C[C@@H](OC(=O)[C@H](CO)c3ccccc3)C[C@H]1[C@@H]1O[C@@H]12 [Scopolamine] |  |  | 13.1 |  |
| Substance P fragment (4-11): fragment 4-11 of Substance P (PQQFFGLM; ends and bridges not checked; UniProt P20366 61-68, looked up, fragment) [reference compound] |  |  |  | > 10000 |
